Measured values as given in US20230096766A1, “AMINO ACID HAVING FUNCTIONAL GROUP CAPABLE OF INTERMOLECULAR HYDROGEN BONDING, PEPTIDE COMPOUND CONTAINING SAME AND METHOD FOR PRODUCTION THEREOF” (Chugai Seiyaku Kabushiki Kaisha, priority 2018, published 2023).
*1 amine or outer side, *2 acyl side, *3 side chain or, on linkers, in order; H or OH if unused. Where a SMILES comes first, the peptide text is derived from it. Bridges are numbered along the chain shown (N, C = ends). [ ]: non-standard residue; d: D form. The star is where a group is joined. ξ: configuration not given here. Phe(3-OMe,4-CONHMe) = CNC(=O)c1ccc(C[C@H](N)C(=O)O)cc1OC; X15 = CCCCN(CC(=O)C(C)[C@@H](CC(C)C)C(=O)[*:2])[*:1]; NMeAbu(4-morpholino) = CN[C@@H](CCN1CCOCC1)C(=O)O; CH2(1,2,4-oxadiazolon-3-yl) = O=c1[nH]c(C*)no1; NMePhe(3-Cl) = CN[C@@H](Cc1cccc(Cl)c1)C(=O)O; Ethyl(2-morpholino) = C1CN(CC*)CCO1; NMeF = CN[C@@H](Cc1ccccc1)C(=O)O; NMeGABA = CN(CCCC(=O)[*:2])[*:1]; NMeI = CC[C@H](C)[C@H](NC)C(=O)O; NMeL = CN[C@@H](CC(C)C)C(=O)O; Butyl(3R-OH) = C[C@@H](O)CC*; Propyl(2R-OH) = C[C@@H](O)C*; Butyl(3S-OH) = C[C@H](O)CC*; NMeV = CN[C@H](C(=O)O)C(C)C; NMeAbu = CC[C@H](NC)C(=O)O; NMeA = CN[C@@H](C)C(=O)O; Piperidide = C1CCN(*)CC1; NBuGly = CCCCNCC(=O)O; Propyl(3-OH) = OCCC*; ξS = NC(CO)C(=O)O; Sar = CNCC(=O)O; tBu = CC(C)(C)*

What was measured:
[1] = Membrane permeability test of cyclic peptides (Caco-2, modified/improved method of WO 2018/124162); details: human, Caco-2, Caco-2 (cm/sec), membrane permeability of cyclic peptides, Caco-2
in vitro = details: human, Caco-2, Caco-2

Row | SMILES | Papp [1] [×10⁻⁶ cm/s] | Papp (in vitro) [×10⁻⁶ cm/s]
1 | CC[C@H](C)[C@H]1C(=O)N[C@@H]([C@@H](C)O)C(=O)N(C)CC(=O)N(C)[C@@H](CC)C(=O)N[C@H](C(=O)N2CCCCC2)CC(=O)N(C)[C@@H](CC(C)C)C(=O)N[C@@H](Cc2ccc(C(=O)NC)c(OC)c2)C(=O)N(C)[C@@H](CC(C)C)C(=O)N(C)[C@@H](Cc2ccccc2)C(=O)N[C@@H](CC(C)C)C(=O)N(C)[C@@H](CC(C)C)C(=O)N1C [AP31] ([NMeL][Phe(3-OMe,4-CONHMe)][NMeL][NMeF]L[NMeL][NMeI]T[Sar][NMeAbu]D-Piperidide; lactam N-11) | 0.52 | 
2 | CCCCN1CC(=O)N(C)[C@@H](CC(C)C)C(=O)NC(COCc2noc(=O)[nH]2)C(=O)N(C)[C@@H](CC(C)C)C(=O)N(C)[C@@H](CC(C)C)C(=O)N[C@H](C(=O)N2CCCCC2)CC(=O)N[C@H](C(C)C)C(=O)N(C)[C@@H](Cc2ccccc2)C(=O)N[C@@H](CC(C)C)C(=O)N(C)[C@@H](CC(C)C)C(=O)N[C@@H]([C@@H](C)O)C1=O (stereo partly drawn) [AP43] ([dV][NMeF]L[NMeL]T[NBuGly][NMeL][ξS](CH2(1,2,4-oxadiazolon-3-yl))[NMeL][NMeL]D-Piperidide; lactam N-11) | 0.82 | 
3 | CCCCN1CC(=O)C(C)[C@@H](CC(C)C)C(=O)NC(COCc2noc(=O)[nH]2)C(=O)N(C)[C@@H](Cc2ccccc2)C(=O)N(C)[C@@H](CC(C)C)C(=O)N[C@H](C(=O)N2CCCCC2)CC(=O)N[C@H](CC(C)C)C(=O)N(C)[C@@H](CC(C)C)C(=O)N[C@@H]([C@@H](C)CC)C(=O)N(C)[C@@H](CC(C)C)C(=O)N[C@@H]([C@@H](C)O)C1=O (stereo partly drawn) [AP44] ([dL][NMeL]I[NMeL]T[X15][ξS](CH2(1,2,4-oxadiazolon-3-yl))[NMeF][NMeL]D-Piperidide; lactam N-10) | 0.3 | 
4 | CCCCN1CC(=O)N(C)[C@@H](CC(C)C)C(=O)N[C@@H](COC(C)(C)C)C(=O)N(C)[C@@H](CC(C)C)C(=O)N(C)[C@@H](CC(C)C)C(=O)N[C@H](C(=O)N2CCCCC2)CC(=O)N[C@H](CC(C)C)C(=O)N(C)[C@@H](Cc2ccccc2)C(=O)NC(COCc2noc(=O)[nH]2)C(=O)N(C)[C@@H](CC(C)C)C(=O)N[C@@H]([C@@H](C)O)C1=O (stereo partly drawn) [AP45] ([dL][NMeF][ξS](CH2(1,2,4-oxadiazolon-3-yl))[NMeL]T[NBuGly][NMeL]S(tBu)[NMeL][NMeL]D-Piperidide; lactam N-11) | 1.4 | 
5 | CC[C@H](C)[C@@H]1NC(=O)[C@H](CC(C)C)N(C)C(=O)CCCN(C)C(=O)C[C@@H](C(=O)N2CCCCC2)NC(=O)[C@H](CC(C)C)N(C)C(=O)[C@H](CC(C)C)N(C)C(=O)[C@H]([C@@H](C)O)NC(=O)[C@H](CC(C)C)N(C)C(=O)C(COCc2noc(=O)[nH]2)NC(=O)[C@H](CC(C)C)N(C)C(=O)[C@H](Cc2cccc(Cl)c2)N(C)C1=O (stereo partly drawn) [AP46] ([NMeGABA][NMeL]I[NMePhe(3-Cl)][NMeL][ξS](CH2(1,2,4-oxadiazolon-3-yl))[NMeL]T[NMeL][NMeL]D-Piperidide; lactam N-11) | 0.22 | 
6 | CCCCN1CC(=O)N(C)[C@@H](CC(C)C)C(=O)N[C@H](C(=O)N2CCCCC2)CC(=O)N(C)[C@@H](CC)C(=O)N[C@@H](CC(C)C)C(=O)N(C)[C@@H](CC(C)C)C(=O)N(C)[C@@H](Cc2ccccc2)C(=O)NC(COCc2noc(=O)[nH]2)C(=O)N(C)[C@@H](CC(C)C)C(=O)N(C)[C@@H](CC(C)C)C(=O)N[C@@H]([C@@H](C)O)C1=O (stereo partly drawn) [AP47] ([NMeAbu]L[NMeL][NMeF][ξS](CH2(1,2,4-oxadiazolon-3-yl))[NMeL][NMeL]T[NBuGly][NMeL]D-Piperidide; lactam N-11) | 5.3 | 
7 | CCCCN1CC(=O)N(C)[C@@H](CC(C)C)C(=O)N[C@H](C(=O)N2CCCCC2)CC(=O)N(C)[C@@H](CC(C)C)C(=O)NC(COCc2noc(=O)[nH]2)C(=O)N(C)[C@@H](CC(C)C)C(=O)N(C)[C@@H](CC(C)C)C(=O)N[C@@H](C(C)C)C(=O)N(C)[C@@H](Cc2ccccc2)C(=O)N(C)[C@@H](CC(C)C)C(=O)N[C@@H]([C@@H](C)O)C1=O (stereo partly drawn) [AP48] ([NMeL][ξS](CH2(1,2,4-oxadiazolon-3-yl))[NMeL][NMeL]V[NMeF][NMeL]T[NBuGly][NMeL]D-Piperidide; lactam N-11) | 0.4 | 
8 | CCCCN1CC(=O)N(C)[C@@H](Cc2cccc(Cl)c2)C(=O)N(C)[C@@H](CC(C)C)C(=O)N[C@@H]([C@@H](C)CC)C(=O)N(C)[C@@H](CC(C)C)C(=O)N[C@H](C(=O)N2CCCCC2)CC(=O)N(C)CC(=O)N(C)[C@@H](CC(C)C)C(=O)NC(COCc2noc(=O)[nH]2)C(=O)N(C)[C@@H](CC(C)C)C(=O)N[C@@H]([C@@H](C)O)C1=O (stereo partly drawn) [AP49] ([Sar][NMeL][ξS](CH2(1,2,4-oxadiazolon-3-yl))[NMeL]T[NBuGly][NMePhe(3-Cl)][NMeL]I[NMeL]D-Piperidide; lactam N-11) | 0.33 | 
9 | CCCCN1CC(=O)N(C)[C@@H](Cc2cccc(Cl)c2)C(=O)N(C)[C@@H](CC(C)C)C(=O)N[C@@H](COCc2noc(=O)[nH]2)C(=O)N(C)[C@@H](CC(C)C)C(=O)N[C@H](C(=O)N2CCCCC2)CC(=O)N(C)CC(=O)N(C)[C@@H](CC(C)C)C(=O)N[C@@H]([C@@H](C)CC)C(=O)N(C)[C@@H](CC(C)C)C(=O)N[C@@H]([C@@H](C)O)C1=O [AP50] ([Sar][NMeL]I[NMeL]T[NBuGly][NMePhe(3-Cl)][NMeL]S(CH2(1,2,4-oxadiazolon-3-yl))[NMeL]D-Piperidide; lactam N-11) | 0.11 | 
10 | CC[C@H](C)[C@@H]1NC(=O)[C@H](CC(C)C)N(C)C(=O)[C@H](COC(C)(C)C)NC(=O)[C@H](Cc2ccccc2)N(C)C(=O)[C@H](Cc2ccccc2)N(C)C(=O)[C@H](COC[C@@H](C)O)NC(=O)[C@H](CC(C)C)N(C)C(=O)CCCN(C)C(=O)C[C@@H](C(=O)N2CCCCC2)NC(=O)[C@H](CC(C)C)N(C)C(=O)[C@H](CC(C)C)N(C)C1=O [AP84] ([NMeGABA][NMeL]S(Propyl(2R-OH))[NMeF][NMeF]S(tBu)[NMeL]I[NMeL][NMeL]D-Piperidide; lactam N-11) | 0.58 | 
11 | CC(C)C[C@@H]1NC(=O)[C@H](Cc2ccccc2)N(C)C(=O)[C@H](CC(C)C)N(C)C(=O)[C@H](COCCCO)NC(=O)[C@H](CC(C)C)N(C)C(=O)C[C@@H](C(=O)N2CCCCC2)NC(=O)[C@H](CC(C)C)N(C)C(=O)CN(C)C(=O)[C@H]([C@@H](C)O)NC(=O)[C@H](CC(C)C)N(C)C(=O)[C@H](Cc2cccc(Cl)c2)N(C)C1=O [AP97] ([NMeL]S(Propyl(3-OH))[NMeL][NMeF]L[NMePhe(3-Cl)][NMeL]T[Sar][NMeL]D-Piperidide; lactam N-11) | 0.21 | 
12 | CC(C)C[C@@H]1NC(=O)[C@H](C(C)C)N(C)C(=O)C[C@@H](C(=O)N2CCCCC2)NC(=O)[C@H](CC(C)C)N(C)C(=O)CN(C)C(=O)[C@H]([C@@H](C)O)NC(=O)[C@H](C(C)C)N(C)C(=O)[C@H](Cc2ccccc2)N(C)C(=O)C(COCC[C@H](C)O)NC(=O)[C@H](Cc2ccccc2)N(C)C(=O)[C@H](CC(C)C)N(C)C1=O (stereo partly drawn) [AP104] ([NMeV]L[NMeL][NMeF][ξS](Butyl(3S-OH))[NMeF][NMeV]T[Sar][NMeL]D-Piperidide; lactam N-11) | 2.9 | 
13 | CCCCN1CC(=O)N(C)[C@@H](CC(C)C)C(=O)N[C@H](C(=O)N2CCCCC2)CC(=O)N(C)[C@@H](C(C)C)C(=O)N[C@@H](CC(C)C)C(=O)N(C)[C@@H](CC(C)C)C(=O)N(C)[C@@H](Cc2ccccc2)C(=O)N[C@@H](COCC[C@H](C)O)C(=O)N(C)[C@@H](Cc2ccccc2)C(=O)N(C)[C@@H](C(C)C)C(=O)N[C@@H]([C@@H](C)O)C1=O [AP107] ([NMeV]L[NMeL][NMeF]S(Butyl(3S-OH))[NMeF][NMeV]T[NBuGly][NMeL]D-Piperidide; lactam N-11) | 0.93 | 
14 | CC(C)C[C@@H]1NC(=O)[C@H](C(C)C)N(C)C(=O)C[C@@H](C(=O)N2CCCCC2)NC(=O)[C@H](CC(C)C)N(C)C(=O)CN(C)C(=O)[C@H]([C@@H](C)O)NC(=O)[C@H](C(C)C)N(C)C(=O)[C@H](Cc2ccccc2)N(C)C(=O)[C@H](COCC[C@@H](C)O)NC(=O)[C@H](Cc2ccccc2)N(C)C(=O)[C@H](CC(C)C)N(C)C1=O [AP113] ([NMeV]L[NMeL][NMeF]S(Butyl(3R-OH))[NMeF][NMeV]T[Sar][NMeL]D-Piperidide; lactam N-11) | 1.7 | 
15 | CCCCN1CC(=O)N(C)[C@@H](C(C)C)C(=O)N[C@H](C(=O)N2CCCCC2)CC(=O)N(C)[C@@H](C)C(=O)N[C@@H](CC(C)C)C(=O)N(C)[C@@H](CC(C)C)C(=O)N(C)[C@@H](Cc2ccccc2)C(=O)N[C@@H](CC(C)C)C(=O)N(C)[C@@H](Cc2ccccc2)C(=O)N(C)[C@@H](CCN2CCOCC2)C(=O)N[C@@H]([C@@H](C)O)C1=O [pd453] ([NMeA]L[NMeL][NMeF]L[NMeF][NMeAbu(4-morpholino)]T[NBuGly][NMeV]D-Piperidide; lactam N-11) |  | 2.3
16 | CCCCN1CC(=O)N(C)[C@@H](CCN2CCOCC2)C(=O)N[C@H](C(=O)N2CCCCC2)CC(=O)N(C)[C@@H](C)C(=O)N[C@@H](CC(C)C)C(=O)N(C)[C@@H](CC(C)C)C(=O)N(C)[C@@H](Cc2ccccc2)C(=O)N[C@@H](CC(C)C)C(=O)N(C)[C@@H](Cc2ccccc2)C(=O)N(C)[C@@H](CC(C)C)C(=O)N[C@@H]([C@@H](C)O)C1=O [pd454] ([NMeA]L[NMeL][NMeF]L[NMeF][NMeL]T[NBuGly][NMeAbu(4-morpholino)]D-Piperidide; lactam N-11) |  | 1.2
17 | CCCCN1CC(=O)N(C)[C@@H](CC(C)C)C(=O)N[C@H](C(=O)N2CCCCC2)CC(=O)N(C)[C@@H](CC)C(=O)NC(COCCN2CCOCC2)C(=O)N(C)[C@@H](CC(C)C)C(=O)N(C)[C@@H](CC)C(=O)N[C@@H](C(C)C)C(=O)N(C)[C@@H](Cc2ccccc2)C(=O)N(C)[C@@H](CC(C)C)C(=O)N[C@@H]([C@@H](C)O)C1=O (stereo partly drawn) [pd483] ([NMeAbu][ξS](Ethyl(2-morpholino))[NMeL][NMeAbu]V[NMeF][NMeL]T[NBuGly][NMeL]D-Piperidide; lactam N-11) |  | 1.9
18 | CCCCN1CC(=O)N(C)[C@@H](Cc2ccccc2)C(=O)N(C)[C@@H](CC(C)C)C(=O)N[C@@H](C(C)C)C(=O)N(C)[C@@H](CC(C)C)C(=O)N[C@H](C(=O)N2CCCCC2)CC(=O)N(C)CC(=O)N(C)[C@@H](CC(C)C)C(=O)NC(COCCN2CCOCC2)C(=O)N(C)[C@@H](CC(C)C)C(=O)N[C@@H]([C@@H](C)O)C1=O (stereo partly drawn) [pd484] ([Sar][NMeL][ξS](Ethyl(2-morpholino))[NMeL]T[NBuGly][NMeF][NMeL]V[NMeL]D-Piperidide; lactam N-11) |  | 1.8
